In the NIST ThermoML archive (doi:10.1021/acs.jced.5b00820):
± gives the expanded uncertainty stated by the source.

Assay: refractive index (Na D-line) (dimensionless); xn = mol fraction of the nth substance listed
Settings: 102.2 kPa, Liquid, Standard Abbe refractometry

C[Si](C)(O[Si](C)(C)c1ccccc1)c1ccccc1 [1,3-diphenyltetramethyldisiloxane] + C=C[Si]1(C)O[Si](C)(C=C)O[Si](C)(C=C)O[Si](C)(C=C)O1
refractive index
Settings	308.15 K	313.15 K	318.15 K	323.15 K	328.15 K
x1 = 0.0511	1.43117 ± 0.00035	1.4288 ± 0.0004	1.42643 ± 0.00035	1.42402 ± 0.00035	1.42168 ± 0.00035
x1 = 0.1004	1.43477 ± 0.00035	1.43241 ± 0.00035	1.43005 ± 0.00035	1.42765 ± 0.00035	1.42534 ± 0.00035
x1 = 0.1503	1.43849 ± 0.00035	1.4361 ± 0.00035	1.43374 ± 0.00035	1.43138 ± 0.00035	1.42904 ± 0.00035
x1 = 0.2	1.44222 ± 0.00035	1.43984 ± 0.00035	1.4375 ± 0.00035	1.43511 ± 0.00035	1.43277 ± 0.00035
x1 = 0.2537	1.4463 ± 0.00035	1.44393 ± 0.00035	1.44162 ± 0.00035	1.43922 ± 0.00035	1.43688 ± 0.00035
x1 = 0.3001	1.4499 ± 0.00035	1.44754 ± 0.00035	1.44521 ± 0.00035	1.44282 ± 0.00035	1.44051 ± 0.00035
x1 = 0.3507	1.45386 ± 0.00035	1.4515 ± 0.00035	1.44918 ± 0.00035	1.44682 ± 0.00035	1.44446 ± 0.00035
x1 = 0.4002	1.4578 ± 0.00035	1.45544 ± 0.00035	1.45312 ± 0.00035	1.45075 ± 0.00035	1.4484 ± 0.00035
x1 = 0.4503	1.46186 ± 0.00035	1.45951 ± 0.00035	1.45719 ± 0.00035	1.45481 ± 0.00035	1.45253 ± 0.00035
x1 = 0.4999	1.4659 ± 0.00035	1.46356 ± 0.00035	1.46122 ± 0.00035	1.45885 ± 0.00035	1.45654 ± 0.00035
x1 = 0.5501	1.47011 ± 0.00035	1.46778 ± 0.00035	1.46545 ± 0.00035	1.46309 ± 0.00035	1.46081 ± 0.00035
x1 = 0.597	1.47406 ± 0.00035	1.47174 ± 0.00035	1.46939 ± 0.00035	1.46705 ± 0.00035	1.46474 ± 0.00035
x1 = 0.6498	1.47861 ± 0.00035	1.47627 ± 0.00035	1.47398 ± 0.00035	1.47166 ± 0.00035	1.46934 ± 0.00035
x1 = 0.7005	1.48302 ± 0.00035	1.48067 ± 0.00035	1.47836 ± 0.00035	1.47601 ± 0.00035	1.47373 ± 0.00035
x1 = 0.7492	1.48734 ± 0.00035	1.48502 ± 0.00035	1.48271 ± 0.00035	1.48037 ± 0.00035	1.47809 ± 0.00035
x1 = 0.8001	1.49193 ± 0.00035	1.48963 ± 0.00035	1.4873 ± 0.00035	1.48499 ± 0.00035	1.48269 ± 0.00035
x1 = 0.8497	1.49647 ± 0.00035	1.49417 ± 0.00035	1.49187 ± 0.00035	1.4896 ± 0.00035	1.48727 ± 0.00035
x1 = 0.8999	1.50106 ± 0.00035	1.49877 ± 0.00035	1.49645 ± 0.00035	1.49415 ± 0.00035	1.4918 ± 0.0004
x1 = 0.9502	1.50586 ± 0.00035	1.50356 ± 0.00035	1.50122 ± 0.00035	1.49894 ± 0.00035	1.49665 ± 0.00035
x1 = 1	1.51066 ± 0.00035	1.50836 ± 0.00035	1.5061 ± 0.0004	1.50381 ± 0.00035	1.5015 ± 0.0004

C[Si](C)(O[Si](C)(C)c1ccccc1)c1ccccc1 [1,3-diphenyltetramethyldisiloxane] + C[Si]1(CCC(F)(F)F)O[Si](C)(CCC(F)(F)F)O[Si](C)(CCC(F)(F)F)O1
refractive index
Settings	308.15 K	313.15 K	318.15 K	323.15 K	328.15 K
x1 = 0.0501	1.36577 ± 0.00035	1.36376 ± 0.00035	1.36177 ± 0.00035	1.35973 ± 0.00035	1.3577 ± 0.0004
x1 = 0.1001	1.37152 ± 0.00035	1.36949 ± 0.00035	1.36745 ± 0.00035	1.36544 ± 0.00035	1.36339 ± 0.00035
x1 = 0.1499	1.37745 ± 0.00035	1.37541 ± 0.00035	1.37337 ± 0.00035	1.37133 ± 0.00035	1.36931 ± 0.00035
x1 = 0.2005	1.38359 ± 0.00035	1.38155 ± 0.00035	1.3795 ± 0.00035	1.37746 ± 0.00035	1.37541 ± 0.00035
x1 = 0.2497	1.38975 ± 0.00035	1.38769 ± 0.00035	1.38565 ± 0.00035	1.38355 ± 0.00035	1.38148 ± 0.00035
x1 = 0.3	1.39624 ± 0.00035	1.39416 ± 0.00035	1.39207 ± 0.00035	1.39 ± 0.00035	1.38792 ± 0.00035
x1 = 0.3431	1.40191 ± 0.00035	1.39984 ± 0.00035	1.39775 ± 0.00035	1.39565 ± 0.00035	1.3936 ± 0.00035
x1 = 0.4001	1.40958 ± 0.00035	1.40754 ± 0.00035	1.40546 ± 0.00035	1.40337 ± 0.00035	1.40125 ± 0.00035
x1 = 0.45	1.41665 ± 0.00035	1.41456 ± 0.00035	1.41246 ± 0.00035	1.41033 ± 0.00035	1.40824 ± 0.00035
x1 = 0.4998	1.42386 ± 0.00035	1.42173 ± 0.00035	1.41969 ± 0.00035	1.4175 ± 0.00035	1.41538 ± 0.00035
x1 = 0.5482	1.43101 ± 0.00035	1.42892 ± 0.00035	1.42678 ± 0.00035	1.42465 ± 0.00035	1.42246 ± 0.00035
x1 = 0.5996	1.43889 ± 0.00035	1.43676 ± 0.00035	1.43456 ± 0.00035	1.43246 ± 0.00035	1.43032 ± 0.00035
x1 = 0.6501	1.44686 ± 0.00035	1.44469 ± 0.00035	1.44253 ± 0.00035	1.44035 ± 0.00035	1.43816 ± 0.00035
x1 = 0.7	1.45499 ± 0.00035	1.45282 ± 0.00035	1.45064 ± 0.00035	1.44846 ± 0.00035	1.44627 ± 0.00035
x1 = 0.75	1.4634 ± 0.00035	1.4612 ± 0.00035	1.459 ± 0.00035	1.45683 ± 0.00035	1.4546 ± 0.0004
x1 = 0.8001	1.4721 ± 0.00035	1.46989 ± 0.00035	1.46772 ± 0.00035	1.4655 ± 0.00035	1.46326 ± 0.00035
x1 = 0.8499	1.48104 ± 0.00035	1.47886 ± 0.00035	1.47659 ± 0.00035	1.47441 ± 0.00035	1.47215 ± 0.00035
x1 = 0.8998	1.49033 ± 0.00035	1.48806 ± 0.00035	1.48584 ± 0.00035	1.48362 ± 0.00035	1.48135 ± 0.00035
x1 = 0.95	1.5001 ± 0.00035	1.49782 ± 0.00035	1.49555 ± 0.00035	1.49332 ± 0.00035	1.49106 ± 0.00035
x1 = 1	1.51009 ± 0.00035	1.50782 ± 0.00035	1.50561 ± 0.00035	1.50332 ± 0.00035	1.501 ± 0.00035
